From ChEMBL document CHEMBL5335813, “Gausemycin Antibiotic Family Acts via Ca2+-Dependent Membrane Targeting” (2024)
≈ marks a conversion by molar mass, not a printed value. Calls of active or inactive are those of the source.

Experiments:
Staphylococcus aureus [1] = test: Antimicrobial activity against Staphylococcus aureus ATCC 29213 assessed as microbial growth inhibition measured after 18 hrs by CLSI based broth microdilution method; assay type: functional
Staphylococcus aureus [2] = test: Antimicrobial activity against Staphylococcus aureus ATCC 29213 assessed as microbial growth inhibition at pH 5 by susceptibility testing method; assay type: functional
Staphylococcus aureus [3] = test: Antimicrobial activity against Staphylococcus aureus ATCC 29213 assessed as microbial growth inhibition at pH 6 by susceptibility testing method; assay type: functional
Staphylococcus aureus [4] = test: Antimicrobial activity against Staphylococcus aureus ATCC 29213 assessed as microbial growth inhibition at pH 7 by susceptibility testing method; assay type: functional
Staphylococcus aureus [5] = test: Antimicrobial activity against Staphylococcus aureus ATCC 29213 assessed as microbial growth inhibition at pH 7.4 by susceptibility testing method; assay type: functional
Staphylococcus aureus [6] = test: Antimicrobial activity against Staphylococcus aureus ATCC 29213 assessed as microbial growth inhibition at pH 8 by susceptibility testing method; assay type: functional
Staphylococcus aureus [7] = test: Antimicrobial activity against Staphylococcus aureus ATCC 29213 assessed as microbial growth inhibition at pH 9 by susceptibility testing method; assay type: functional
Staphylococcus aureus [8] = test: Antimicrobial activity against Staphylococcus aureus ATCC 29213 assessed as microbial growth inhibition at pH 10 by susceptibility testing method; assay type: functional
Staphylococcus aureus [9] = test: Antimicrobial activity against Staphylococcus aureus ATCC 29213 assessed as microbial growth inhibition in presence of Na+ by susceptibility testing method; assay type: functional
Staphylococcus aureus [10] = test: Antimicrobial activity against Staphylococcus aureus ATCC 29213 assessed as microbial growth inhibition in presence of K+ by susceptibility testing method; assay type: functional
Staphylococcus aureus [11] = test: Antimicrobial activity against Staphylococcus aureus ATCC 29213 assessed as microbial growth inhibition in presence of Mg2+ by susceptibility testing method; assay type: functional
Staphylococcus aureus [12] = test: Antimicrobial activity against Staphylococcus aureus ATCC 29213 assessed as microbial growth inhibition in presence of Mn2+ by susceptibility testing method; assay type: functional
Staphylococcus aureus [13] = test: Antimicrobial activity against Staphylococcus aureus ATCC 29213 assessed as microbial growth inhibition in presence of Zn2+ by susceptibility testing method; assay type: functional
Staphylococcus aureus [14] = test: Antimicrobial activity against Staphylococcus aureus ATCC 29213 assessed as microbial growth inhibition in presence of Cu2+ by susceptibility testing method; assay type: functional
Staphylococcus aureus [15] = test: Antimicrobial activity against Staphylococcus aureus ATCC 29213 assessed as microbial growth inhibition in presence of Fe3+ by susceptibility testing method; assay type: functional
Staphylococcus aureus [16] = test: Antimicrobial activity against Staphylococcus aureus ATCC 29213 assessed as microbial growth inhibition in presence of Ca2+ by susceptibility testing method; assay type: functional
Escherichia coli [17] = test: Antimicrobial activity against Escherichia coli BL21 (DE3) assessed as microbial growth inhibition in presence of Ca2+ by susceptibility testing method; assay type: functional, organism-based
Escherichia coli [18] = test: Antimicrobial activity against Escherichia coli expressing delta-tolC/KanR assessed as microbial growth inhibition in presence of Ca2+ by susceptibility testing method; assay type: functional, organism-based
Pseudomonas aeruginosa = test: Antimicrobial activity against Pseudomonas aeruginosa assessed as microbial growth inhibition in presence of Ca2+ by susceptibility testing method; assay type: functional, organism-based
Micrococcus luteus = test: Antimicrobial activity against Micrococcus luteus assessed as microbial growth inhibition in presence of Ca2+ by susceptibility testing method; assay type: functional, organism-based
Macrococcus caseolyticus = test: Antimicrobial activity against Macrococcus caseolyticus assessed as microbial growth inhibition in presence of Ca2+ by susceptibility testing method; assay type: functional, organism-based; settings: Macrococcoides caseolyticum
Bacillus cereus = test: Antimicrobial activity against Bacillus cereus X1 assessed as microbial growth inhibition in presence of Ca2+ by susceptibility testing method; assay type: functional, organism-based
Staphylococcus aureus [19] = test: Antimicrobial activity against Staphylococcus aureus ATCC 29213 assessed as microbial growth inhibition in presence of (B4O7)2- by susceptibility testing method; assay type: functional
Staphylococcus aureus [20] = test: Antimicrobial activity against Staphylococcus aureus ATCC 29213 assessed as microbial growth inhibition in presence of (CH3CO2)- by susceptibility testing method; assay type: functional
Staphylococcus aureus [21] = test: Antimicrobial activity against Staphylococcus aureus ATCC 29213 assessed as microbial growth inhibition in presence of (HCO3)- by susceptibility testing method; assay type: functional
Staphylococcus aureus [22] = test: Antimicrobial activity against Staphylococcus aureus ATCC 29213 assessed as microbial growth inhibition in presence of (H2PO4)-/(HPO4)2- by susceptibility testing method; assay type: functional
Staphylococcus aureus [23] = test: Antimicrobial activity against Staphylococcus aureus ATCC 29213 assessed as microbial growth inhibition by susceptibility testing method; assay type: functional
Staphylococcus aureus [24] = test: Antimicrobial activity against Staphylococcus aureus ATCC 29213 assessed as microbial growth inhibition in presence of <=200 mM of (H2PO4)-/(HPO4)2- by susceptibility testing method; assay type: functional, organism-based
Lipid bilayer [25] = test: Induction of pore formation in zwitter-ionic DOPC lipid bilayer membrane model at 1 to 100 ug/ml; settings: dose 1-100 µg/ml
Lipid bilayer [26] = test: Induction of pore formation in anionic DOPC/DOPG lipid bilayer membrane model at 1 to 100 ug/ml; settings: dose 1-100 µg/ml
Lipid bilayer [27] = test: Induction of pore formation in anionic DPhPG lipid bilayer membrane model at 1 to 100 ug/ml; settings: dose 1-100 µg/ml
Lipid bilayer [28] = test: Induction of pore formation in anionic TOCL lipid bilayer membrane model at 1 to 100 ug/ml; settings: dose 1-100 µg/ml
Lipid bilayer [29] = test: Induction of pore formation in anionic TMoCL lipid bilayer membrane model at 1 to 100 ug/ml; settings: dose 1-100 µg/ml
Lipid bilayer [30] = test: Induction of pore formation in cationic DOPC/DOTAP lipid bilayer membrane model at 1 to 100 ug/ml; settings: dose 1-100 µg/ml
Lipid bilayer [31] = test: Induction of pore formation in anionic DOPC/DOPG lipid bilayer membrane model at 1 to 100 ug/ml in presence of CaCl2; settings: dose 1-100 µg/ml
Lipid bilayer [32] = test: Induction of pore formation in cationic DOPC/DOTAP lipid bilayer membrane model at 1 to 100 ug/ml in presence of CaCl2; settings: dose 1-100 µg/ml
Lipid bilayer [33] = test: Induction of pore formation in anionic DPhPG lipid bilayer membrane model at 1 to 100 ug/ml in presence of CaCl2; settings: dose 1-100 µg/ml
Lipid bilayer [34] = test: Induction of pore formation in anionic TOCL lipid bilayer membrane model at 1 to 100 ug/ml in presence of CaCl2; settings: dose 1-100 µg/ml
Lipid bilayer [35] = test: Induction of pore formation in anionic TMoCL lipid bilayer membrane model assessed as pore-forming threshold concentration
Lipid bilayer [36] = test: Induction of pore formation in anionic TMoCL lipid bilayer membrane model assessed as pore-forming threshold concentration in presence of CaCl2
Staphylococcus aureus [37] = test: Antimicrobial activity against Staphylococcus aureus ATCC 29213 assessed as microbial growth inhibition at pH 5 to 6 by susceptibility testing method; assay type: functional, organism-based
Staphylococcus aureus [38] = test: Antimicrobial activity against Staphylococcus aureus ATCC 29213 assessed as microbial growth inhibition at pH 5 to 6 by microdilution method; assay type: functional, organism-based

SMILES | MIC (Staphylococcus aureus [1]) | Activity (Lipid bilayer [25]) | Activity (Lipid bilayer [26]) | Activity (Lipid bilayer [27]) | Activity (Lipid bilayer [28]) | Activity (Lipid bilayer [29]) | Activity (Lipid bilayer [30]) | Activity (Lipid bilayer [31]) | Activity (Lipid bilayer [32]) | Activity (Lipid bilayer [33]) | Activity (Lipid bilayer [34]) | Activity (Lipid bilayer [35]) | Activity (Lipid bilayer [36]) | inhibition (Escherichia coli [17]) | inhibition (Escherichia coli [18]) | inhibition (Pseudomonas aeruginosa) | inhibition (Micrococcus luteus) | inhibition (Macrococcus caseolyticus) | inhibition (Bacillus cereus) | Activity (Staphylococcus aureus [24]) | also measured
CCCCCCCCCC(=O)N[C@@H](Cc1c[nH]c2ccccc12)C(=O)N[C@H](CC(N)=O)C(=O)N[C@@H](CC(=O)O)C(=O)N[C@@H]1C(=O)NCC(=O)N[C@@H](CCCN)C(=O)N[C@@H](CC(=O)O)C(=O)N[C@H](C)C(=O)N[C@@H](CC(=O)O)C(=O)NCC(=O)N[C@H](CO)C(=O)N[C@@H]([C@H](C)CC(=O)O)C(=O)N[C@@H](CC(=O)c2ccccc2N)C(=O)O[C@@H]1C |  |  |  |  |  |  |  |  |  |  |  |  |  |  |  |  |  |  |  |  | growth inhibition (GI) (Staphylococcus aureus [38]): Active
CC(C)/C=C/C=C\C(=O)NCCC(=O)N[C@@H](CCCNC(=O)CCN)C(=O)NC(CC(O)c1ccccc1)C(=O)NC(C(=O)N[C@@H](Cc1ccc(O)cc1)C(=O)NC1C(=O)N[C@H](CC(C)C)C(=O)N[C@@H](CC(=O)O)C(=O)NCC(=O)N[C@@H](CO)C(=O)NCC(=O)N[C@@H](CC(=O)c2ccc(Cl)cc2N)C(=O)N[C@@H](C)C(=O)N2CCC[C@H]2C(=O)NC1C)C(O)CC(=O)O (some centres not stated) | 8 µg/mL (≈ 4.48 µM) |  |  |  |  |  |  |  |  |  |  |  |  |  |  |  |  |  |  |  | 
CNCCC(=O)NCCC[C@H](NC(=O)CCNC(=O)/C=C\C=C\C(C)C)C(=O)NC(CC(O)c1ccccc1)C(=O)NC(C(=O)N[C@@H](Cc1ccc(OC2OC[C@H](O)[C@H](O)[C@H]2O)cc1)C(=O)NC1C(=O)N[C@H](CC(C)C)C(=O)N[C@@H](CC(=O)O)C(=O)NCC(=O)N[C@@H](CO)C(=O)NCC(=O)N[C@@H](CC(=O)c2ccc(Cl)cc2N)C(=O)N[C@@H](C)C(=O)N2CCC[C@H]2C(=O)NC1C)C(O)CC(=O)O (some centres not stated) | 4 µg/mL (≈ 2.07 µM) |  |  |  |  |  |  |  |  |  |  |  |  |  |  |  |  |  |  |  | 

The remaining molecules from weak to strong by MIC (Staphylococcus aureus [1]), led by results:

MIC (Staphylococcus aureus [1]) | Activity (Lipid bilayer [25]) | Activity (Lipid bilayer [26]) | Activity (Lipid bilayer [27]) | Activity (Lipid bilayer [28]) | Activity (Lipid bilayer [29]) | Activity (Lipid bilayer [30]) | Activity (Lipid bilayer [31]) | Activity (Lipid bilayer [32]) | Activity (Lipid bilayer [33]) | Activity (Lipid bilayer [34]) | Activity (Lipid bilayer [35]) | Activity (Lipid bilayer [36]) | SMILES | inhibition (Escherichia coli [17]) | inhibition (Escherichia coli [18]) | inhibition (Pseudomonas aeruginosa) | inhibition (Micrococcus luteus) | inhibition (Macrococcus caseolyticus) | inhibition (Bacillus cereus) | Activity (Staphylococcus aureus [24]) | also measured
2 µg/mL (≈ 1.04 µM) | inactive | Active | Active | Active | Active | Active | Active | Active | Active | Active | 10 µg/mL | 7 µg/mL | CC(C)/C=C/C=C\C(=O)NCCC(=O)N[C@@H](CCCNC(=O)CCN)C(=O)NC(CC(O)c1ccccc1)C(=O)NC(C(=O)N[C@@H](Cc1ccc(OC2OC[C@H](O)[C@H](O)[C@H]2O)cc1)C(=O)NC1C(=O)N[C@H](CC(C)C)C(=O)N[C@@H](CC(=O)O)C(=O)NCC(=O)N[C@@H](CO)C(=O)NCC(=O)N[C@@H](CC(=O)c2ccc(Cl)cc2N)C(=O)N[C@@H](C)C(=O)N2CCC[C@H]2C(=O)NC1C)C(O)CC(=O)O (some centres not stated) | inactive | inactive | inactive | Active | Active | Active | inactive | growth inhibition (GI) (Staphylococcus aureus [9]): Active; growth inhibition (GI) (Staphylococcus aureus [10]): Active; growth inhibition (GI) (Staphylococcus aureus [11]): Active; growth inhibition (GI) (Staphylococcus aureus [12]): Active; growth inhibition (GI) (Staphylococcus aureus [13]): Active; growth inhibition (GI) (Staphylococcus aureus [14]): Active; growth inhibition (GI) (Staphylococcus aureus [15]): Active; growth inhibition (GI) (Staphylococcus aureus [16]): Active; growth inhibition (GI) (Staphylococcus aureus [37]): Active
1 µg/mL (≈ 0.541 µM) | inactive | Active | Active | Active | Active | Active | Active | Active | Active | Active | 10 µg/mL | 7 µg/mL | CC(C)/C=C/C=C\C(=O)NCCC(=O)N[C@@H](CCCN)C(=O)NC(CC(O)c1ccccc1)C(=O)NC(C(=O)N[C@@H](Cc1ccc(OC2OC[C@H](O)[C@H](O)[C@H]2O)cc1)C(=O)NC1C(=O)N[C@H](CC(C)C)C(=O)N[C@@H](CC(=O)O)C(=O)NCC(=O)N[C@@H](CO)C(=O)NCC(=O)N[C@@H](CC(=O)c2ccc(Cl)cc2N)C(=O)N[C@@H](C)C(=O)N2CCC[C@H]2C(=O)NC1C)C(O)CC(=O)O (some centres not stated) | inactive | inactive | inactive | Active | Active | Active | inactive | MIC (Staphylococcus aureus [2]): 4 µg/mL (≈ 2.17 µM); MIC (Staphylococcus aureus [3]): 4 µg/mL (≈ 2.17 µM); MIC (Staphylococcus aureus [4]): 2 µg/mL (≈ 1.08 µM); MIC (Staphylococcus aureus [5]): 1 µg/mL (≈ 0.541 µM); MIC (Staphylococcus aureus [6]): 1 µg/mL (≈ 0.541 µM); MIC (Staphylococcus aureus [7]): 0.5 µg/mL (≈ 0.271 µM); MIC (Staphylococcus aureus [8]): 0.25 µg/mL (≈ 0.135 µM); MIC (Staphylococcus aureus [9]): 1 µg/mL; MIC (Staphylococcus aureus [10]): 1 µg/mL; MIC (Staphylococcus aureus [11]): 1 µg/mL; MIC (Staphylococcus aureus [12]): 1 µg/mL; MIC (Staphylococcus aureus [13]): 1 µg/mL; MIC (Staphylococcus aureus [14]): 1 µg/mL; MIC (Staphylococcus aureus [15]): 1 µg/mL; MIC (Staphylococcus aureus [16]): 0.125 µg/mL; MIC (Staphylococcus aureus [19]): 1 µg/mL; MIC (Staphylococcus aureus [20]): 2 µg/mL; MIC (Staphylococcus aureus [21]): 0.5 µg/mL; MIC (Staphylococcus aureus [22]): 4 µg/mL; MIC (Staphylococcus aureus [23]): 1 µg/mL (≈ 0.541 µM)
